# Assay results published in patent US8952024B2, “Herbicidal pyrimidone derivatives” (E I du Pont de Nemours and Company, priority 2009, dated 2015).
# Columns and labels:
# Format in all cases: in vivo
# [1] = tested on: barnyardgrass (Echinochloa crus-galli); assay: Test A pre-/postemergence plant response
# From the text: (§1) Seeds of barnyardgrass (Echinochloa crus-galli), large crabgrass (Digitaria sanguinalis), giant foxtail (Setaria faberii), morningglory (Ipomoea spp.), pigweed (Amaranthus retroflexus), velvetleaf (Abutilon theophrasti), wheat (Triticum aestivum) and corn (Zea mays) were planted into a blend of loam soil and sand and treated preemergence with a directed soil spray using test chemicals formulated in a non-phytotoxic solvent mixture which included a surfactant. At the same time these species were also treated with postemergence applications of test compounds formulated in the same manner.
# (§2) Plants ranged in height from two to ten cm and were in the one- to two-leaf stage for the postemergence treatment. Treated plants and untreated controls were maintained in a greenhouse for approximately ten days, after which time all treated plants were compared to untreated controls and visually evaluated for injury. Plant response ratings, summarized in Table A, are based on a 0 to 100 scale where 0 is no effect and 100 is complete control. A dash (-) response means no test result.
# [2] = tested on: velvetleaf (Abutilon theophrasti); assay: Test A pre-/postemergence plant response
# From the text: as §1, §2
# [3] = tested on: giant foxtail (Setaria faberii); assay: Test A pre-/postemergence plant response
# From the text: as §1, §2
# [4] = tested on: wheat (Triticum aestivum); assay: Test A pre-/postemergence plant response
# From the text: as §1, §2
# [5] = tested on: morningglory (Ipomoea spp.); assay: Test A pre-/postemergence plant response
# From the text: as §1, §2
# [6] = tested on: corn (Zea mays); assay: Test A pre-/postemergence plant response
# From the text: as §1, §2
# [7] = tested on: pigweed (Amaranthus retroflexus); assay: Test A pre-/postemergence plant response
# From the text: as §1, §2
# [8] = tested on: large crabgrass (Digitaria sanguinalis); assay: Test A pre-/postemergence plant response
# From the text: as §1, §2
# [9] = tested on: barnyardgrass (Echinochloa crus-galli); assay: Test B flooded paddy test; conditions: for Plant response rating, Flood, Barnyardgrass: 250 g ai/ha, flooded paddy test, visual rating on 0 to 100 scale (0 no effect, 100 complete control) after 13 to 15 days; for Plant response rating, Barnyardgrass: Flood (flooded paddy test), 13 to 15 days
# How it was run: (§3)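 Post-flood paddy application: compounds are introduced into water 3 cm deep over the soil, reaching plants at the 2-leaf stage. The water level is maintained, and after 13–15 days under greenhouse conditions, response is judged by eye relative to controls, where 100 means complete control.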
# [10] = tested on: ducksalad (Heteranthera limosa); assay: Test B flooded paddy test; conditions: for Plant response rating, Flood, Ducksalad: 250 g ai/ha, flooded paddy test, visual rating on 0 to 100 scale (0 no effect, 100 complete control) after 13 to 15 days; for Plant response rating, Ducksalad: Flood (flooded paddy test), 13 to 15 days
# How it was run: as §3
# [11] = tested on: rice (Oryza sativa); assay: Test B flooded paddy test; conditions: for Plant response rating, Flood, Rice: 250 g ai/ha, flooded paddy test, visual rating on 0 to 100 scale (0 no effect, 100 complete control) after 13 to 15 days; for Plant response rating, Rice: Flood (flooded paddy test), 13 to 15 days
# How it was run: as §3
# [12] = tested on: umbrella sedge (Cyperus difformis); assay: Test B flooded paddy test; conditions: for Plant response rating, Flood, Sedge, Umbrella: 250 g ai/ha, flooded paddy test, visual rating on 0 to 100 scale (0 no effect, 100 complete control) after 13 to 15 days; for Plant response rating, Sedge, Umbrella: Flood (flooded paddy test), 13 to 15 days
# How it was run: as §3
# [13] = Postemergence, 125 g ai/ha, visual injury, 0 to 100 scale (0 no effect, 100 complete control), approx. ten days
# [14] = Postemergence, 500 g ai/ha, 0 to 100 scale, 0 = no effect, 100 = complete control, approx. ten days
# [15] = Preemergence, 125 g ai/ha, 0 to 100 scale, 0 = no effect, 100 = complete control
# [16] = Preemergence, 500 g ai/ha, visual injury, 0 to 100 scale (0 no effect, 100 complete control), approx. ten days
# [17] = 31 g ai/ha, scale of 0 to 100 where 0 is no effect and 100 is complete control
# [18] = 62 g ai/ha, scale 0 to 100, 0 is no effect, 100 is complete control
# [19] = 125 g ai/ha, scale 0 to 100, 0 is no effect, 100 is complete control
# [20] = Postemergence, 125 g ai/ha, 0 to 100 scale where 0 is no effect and 100 is complete control
# [21] = Preemergence, 500 g ai/ha, 0 to 100 scale, 0 = no effect, 100 = complete control
# [22] = 62 g ai/ha, scale of 0 to 100 where 0 is no effect and 100 is complete control
# [23] = Flood, 31 g ai/ha, scale 0 to 100 (0 no effect, 100 complete control)
smiles,measurement,setting,value
O=C1CCCC([O-])=C1C(=O)c1cnc(-c2ccccc2)n(-c2ccc(Cl)cc2)c1=O.[K+] [Compound 13],Barnyardgrass plant response rating,[1]; [13],30
same,"Plant response rating, Barnyardgrass",[1]; [14],90
same,"Plant response rating, Barnyardgrass",[1]; [15],10
same,"Plant response rating, Barnyardgrass",[1]; [16],90
same,Velvetleaf plant response rating,[2]; [13],100
same,"Plant response rating, Velvetleaf",[2]; [14],100
same,"Plant response rating, Velvetleaf",[2]; [15],80
same,"Plant response rating, Velvetleaf",[2]; [16],100
same,"Foxtail, Giant plant response rating",[3]; [13],30
same,"Plant response rating, Foxtail, Giant",[3]; [14],80
same,"Plant response rating, Foxtail, Giant",[3]; [15],50
same,"Plant response rating, Foxtail, Giant",[3]; [16],90
same,Wheat plant response rating,[4]; [13],10
same,"Plant response rating, Wheat",[4]; [14],60
same,"Plant response rating, Wheat",[4]; [15],0
same,"Plant response rating, Wheat",[4]; [16],40
same,Morningglory plant response rating,[5]; [13],0
same,"Plant response rating, Morningglory",[5]; [14],50
same,"Plant response rating, Morningglory",[5]; [15],0
same,"Plant response rating, Morningglory",[5]; [16],0
same,Corn plant response rating,[6]; [13],0
same,"Plant response rating, Corn",[6]; [14],50
same,"Plant response rating, Corn",[6]; [15],0
same,"Plant response rating, Corn",[6]; [16],20
same,Pigweed plant response rating,[7]; [13],80
same,"Plant response rating, Pigweed",[7]; [14],100
same,"Plant response rating, Pigweed",[7]; [15],40
same,"Plant response rating, Pigweed",[7]; [16],100
same,"Crabgrass, Large plant response rating",[8]; [13],30
same,"Plant response rating, Crabgrass, Large",[8]; [14],90
same,"Plant response rating, Crabgrass, Large",[8]; [15],60
same,"Plant response rating, Crabgrass, Large",[8]; [16],100
same,"Plant response rating, Flood, Barnyardgrass",[9],35
same,"Plant response rating, Barnyardgrass",[9]; [17],0
same,"Plant response rating, Barnyardgrass",[9]; [18],0
same,"Plant response rating, Barnyardgrass",[9]; [19],0
same,"Plant response rating, Flood, Ducksalad",[10],95
same,"Plant response rating, Ducksalad",[10]; [17],0
same,"Plant response rating, Ducksalad",[10]; [18],0
same,"Plant response rating, Ducksalad",[10]; [19],0
same,"Plant response rating, Flood, Rice",[11],25
same,"Plant response rating, Rice",[11]; [17],0
same,"Plant response rating, Rice",[11]; [18],0
same,"Plant response rating, Rice",[11]; [19],0
same,"Plant response rating, Flood, Sedge, Umbrella",[12],85
same,"Plant response rating, Sedge, Umbrella",[12]; [17],0
same,"Plant response rating, Sedge, Umbrella",[12]; [18],0
same,"Plant response rating, Sedge, Umbrella",[12]; [19],60
COc1ccc(-n2c(-c3cccc(Cl)c3)ncc(C(=O)C3=C(O)CCCC3=O)c2=O)cc1 [Compound 151],"Plant response rating, Barnyardgrass",[1]; [20],60
same,"Plant response rating, Barnyardgrass",[1]; [14],90
same,"Plant response rating, Barnyardgrass",[1]; [15],20
same,"Plant response rating, Barnyardgrass",[1]; [16],100
same,"Plant response rating, Velvetleaf",[2]; [20],100
same,"Plant response rating, Velvetleaf",[2]; [14],100
same,"Plant response rating, Velvetleaf",[2]; [15],50
same,"Plant response rating, Velvetleaf",[2]; [21],70
same,"Plant response rating, Foxtail, Giant",[3]; [20],20
same,"Plant response rating, Foxtail, Giant",[3]; [14],70
same,"Plant response rating, Foxtail, Giant",[3]; [15],20
same,"Plant response rating, Foxtail, Giant",[3]; [16],60
same,"Plant response rating, Wheat",[4]; [20],0
same,"Plant response rating, Wheat",[4]; [14],20
same,"Plant response rating, Wheat",[4]; [15],0
same,"Plant response rating, Wheat",[4]; [21],20
same,"Plant response rating, Morningglory",[5]; [20],40
same,"Plant response rating, Morningglory",[5]; [14],100
same,"Plant response rating, Morningglory",[5]; [16],30
same,"Plant response rating, Corn",[6]; [20],0
same,"Plant response rating, Corn",[6]; [14],10
same,"Plant response rating, Corn",[6]; [15],0
same,"Plant response rating, Corn",[6]; [16],0
same,"Plant response rating, Pigweed",[7]; [20],100
same,"Plant response rating, Pigweed",[7]; [14],100
same,"Plant response rating, Pigweed",[7]; [15],50
same,"Plant response rating, Pigweed",[7]; [16],70
same,"Plant response rating, Crabgrass, Large",[8]; [20],30
same,"Plant response rating, Crabgrass, Large",[8]; [14],70
same,"Plant response rating, Crabgrass, Large",[8]; [15],10
same,"Plant response rating, Crabgrass, Large",[8]; [16],50
same,"Plant response rating, Flood, Barnyardgrass",[9],55
same,"Plant response rating, Barnyardgrass",[9]; [22],15
same,"Plant response rating, Barnyardgrass",[9]; [19],30
same,Barnyardgrass plant response rating,[9]; [23],0
same,"Plant response rating, Flood, Ducksalad",[10],100
same,"Plant response rating, Ducksalad",[10]; [22],80
same,"Plant response rating, Ducksalad",[10]; [19],100
same,Ducksalad plant response rating,[10]; [23],80
same,"Plant response rating, Flood, Rice",[11],50
same,"Plant response rating, Rice",[11]; [22],0
same,"Plant response rating, Rice",[11]; [19],15
same,Rice plant response rating,[11]; [23],20
same,"Plant response rating, Flood, Sedge, Umbrella",[12],100
same,"Plant response rating, Sedge, Umbrella",[12]; [22],85
same,"Plant response rating, Sedge, Umbrella",[12]; [19],100
same,"Sedge, Umbrella plant response rating",[12]; [23],85
